# Measured values: ChEMBL document CHEMBL1201862, “PubChem BioAssay data set” (2004)
#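 1) Cells in 96-well plates. 2) Compound, 48 h, 5 concentrations. 3) Linear interpolation between surrounding doses. 4) Unreached endpoint = highest concentration. GI50 = concentration required for 50% inhibition of growth.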 Activity calls are given as the source filed them. No stated cut-off is given here; in the data, active = GI50 up to about 1.1 µM and inactive = higher.
# Legend:
# Test in all cases: DTP human tumour cell line panel, 48 h
# [1] = tested on: ACHN
# [2] = tested on: M14
# [3] = tested on: HCT-15
# [4] = tested on: NCI-H23
# [5] = tested on: NCI-H522
# [6] = tested on: OVCAR-5
# [7] = tested on: TK-10
# [8] = tested on: XF498
# [9] = tested on: NCI-H460
# [10] = tested on: U-251
# [11] = tested on: CCRF-CEM
# [12] = tested on: DMS-273
# [13] = tested on: DLD-1
# [14] = tested on: SN12C
# [15] = tested on: UACC-62
# [16] = tested on: SW-620
# [17] = tested on: HCC 2998
# [18] = tested on: HL-60
# [19] = tested on: Malme-3M
# [20] = tested on: LOX IMVI
# [21] = tested on: HOP-92
# [22] = tested on: SR
# [23] = tested on: SF-539
# [24] = tested on: A549
# [25] = tested on: COLO 205
# [26] = tested on: SNB-78
# [27] = tested on: SF-295
# [28] = tested on: KM-20L2
# [29] = tested on: SK-MEL-5
# [30] = tested on: 786-0
# [31] = tested on: RPMI-8226
# [32] = tested on: DMS-114
# [33] = tested on: EKVX
# [34] = tested on: SK-OV-3
# [35] = tested on: SK-MEL-2
# [36] = tested on: IGROV-1
# [37] = tested on: SNB-75
# [38] = tested on: NCI-H226
# [39] = tested on: SF-268
# [40] = tested on: SNB-19
# [41] = tested on: UO-31
# [42] = tested on: OVCAR-8
# [43] = tested on: HOP-62
# [44] = tested on: HCT-116
# [45] = tested on: M19-MEL
# [46] = tested on: SK-MEL-28
# [47] = tested on: K562
# [48] = tested on: HT-29
# [49] = tested on: OVCAR-4
# [50] = tested on: A498
# [51] = tested on: RXF 393
# [52] = tested on: OVCAR-3
# [53] = tested on: UACC-257
# [54] = tested on: MOLT-4
# [55] = tested on: KM12
# [56] = tested on: LXFL 529
smiles,measurement,setting,value
CCOC(=O)C1(Br)S(=O)(=O)OCCOS1(=O)=O,GI50,[1],> 100 µM (inactive)
same,GI50,[2],> 100 µM (inactive)
same,GI50,[3],> 100 µM
same,GI50,[4],> 100 µM (inactive)
same,GI50,[5],> 100 µM (inactive)
same,GI50,[6],> 100 µM (inactive)
same,GI50,[7],> 100 µM (inactive)
same,GI50,[8],> 100 µM (inactive)
same,GI50,[9],> 100 µM (inactive)
same,GI50,[10],> 100 µM (inactive)
same,GI50,[11],> 100 µM (inactive)
same,GI50,[12],> 100 µM (inactive)
same,GI50,[13],> 100 µM (inactive)
same,GI50,[14],> 100 µM (inactive)
same,GI50,[15],> 100 µM (inactive)
same,GI50,[16],> 100 µM (inactive)
same,GI50,[17],> 100 µM (inactive)
same,GI50,[18],> 100 µM (inactive)
same,GI50,[19],> 100 µM (inactive)
same,GI50,[20],> 100 µM (inactive)
same,GI50,[21],> 100 µM (inactive)
same,GI50,[22],> 100 µM (inactive)
same,GI50,[23],> 100 µM (inactive)
same,GI50,[24],> 100 µM (inactive)
same,GI50,[25],> 100 µM (inactive)
same,GI50,[26],> 100 µM (inactive)
same,GI50,[27],> 100 µM (inactive)
same,GI50,[28],> 100 µM (inactive)
same,GI50,[29],> 100 µM (inactive)
same,GI50,[30],> 100 µM (inactive)
same,GI50,[31],> 100 µM (inactive)
same,GI50,[32],> 100 µM (inactive)
same,GI50,[33],> 100 µM (inactive)
same,GI50,[34],> 100 µM (inactive)
same,GI50,[35],> 100 µM (inactive)
same,GI50,[36],> 100 µM (inactive)
same,GI50,[37],> 100 µM (inactive)
same,GI50,[38],> 100 µM (inactive)
same,GI50,[39],> 100 µM (inactive)
same,GI50,[40],> 100 µM (inactive)
same,GI50,[41],> 100 µM (inactive)
same,GI50,[42],> 100 µM (inactive)
same,GI50,[43],> 100 µM (inactive)
same,GI50,[44],> 100 µM (inactive)
same,GI50,[45],> 100 µM (inactive)
same,GI50,[46],> 100 µM (inactive)
same,GI50,[47],> 100 µM (inactive)
same,GI50,[48],> 100 µM (inactive)
same,GI50,[49],> 100 µM (inactive)
same,GI50,[50],> 100 µM (inactive)
same,GI50,[51],> 100 µM (inactive)
same,GI50,[52],> 100 µM (inactive)
same,GI50,[53],> 100 µM (inactive)
same,GI50,[54],> 100 µM (inactive)
O=C(O)C12CC3CC(CC(F)(C3)C1)C2,GI50,[1],> 100 µM (inactive)
same,GI50,[2],> 100 µM (inactive)
same,GI50,[4],> 100 µM (inactive)
same,GI50,[5],> 100 µM (inactive)
same,GI50,[6],> 100 µM (inactive)
same,GI50,[7],> 100 µM (inactive)
same,GI50,[8],> 100 µM (inactive)
same,GI50,[9],> 100 µM (inactive)
same,GI50,[10],> 100 µM (inactive)
same,GI50,[11],> 100 µM (inactive)
same,GI50,[12],> 100 µM (inactive)
same,GI50,[13],> 100 µM (inactive)
same,GI50,[15],> 100 µM (inactive)
same,GI50,[16],> 100 µM (inactive)
same,GI50,[17],> 100 µM (inactive)
same,GI50,[18],> 100 µM (inactive)
same,GI50,[19],> 100 µM (inactive)
same,GI50,[20],> 100 µM (inactive)
same,GI50,[21],> 100 µM (inactive)
same,GI50,[23],> 100 µM (inactive)
same,GI50,[24],> 100 µM (inactive)
same,GI50,[25],> 100 µM (inactive)
same,GI50,[26],32.2 µM (inactive)
same,GI50,[28],> 100 µM (inactive)
same,GI50,[29],> 100 µM (inactive)
same,GI50,[30],> 100 µM (inactive)
same,GI50,[31],> 100 µM (inactive)
same,GI50,[32],> 100 µM (inactive)
same,GI50,[55],> 100 µM (inactive)
same,GI50,[33],> 100 µM (inactive)
same,GI50,[34],> 100 µM (inactive)
same,GI50,[35],> 100 µM (inactive)
same,GI50,[36],> 100 µM (inactive)
same,GI50,[37],65.5 µM (inactive)
same,GI50,[41],> 100 µM (inactive)
same,GI50,[42],> 100 µM (inactive)
same,GI50,[43],> 100 µM (inactive)
same,GI50,[44],> 100 µM (inactive)
same,GI50,[56],> 100 µM (inactive)
same,GI50,[45],> 100 µM (inactive)
same,GI50,[46],> 100 µM (inactive)
same,GI50,[47],> 100 µM (inactive)
same,GI50,[48],> 100 µM (inactive)
same,GI50,[50],> 100 µM (inactive)
same,GI50,[51],> 100 µM (inactive)
same,GI50,[52],> 100 µM (inactive)
same,GI50,[53],> 100 µM (inactive)
same,GI50,[54],> 100 µM (inactive)
